Source: EP0584797A2, “Novel cephalosporin compounds and processes for the preparation thereof” (LUCKY LTD., priority 1992, dated 1994)
Converted amounts (≈) assume the structure as drawn.

What was measured:
Assay in all cases: minimal inhibitory concentration, two-fold agar dilution
Type in all cases: cell-based
[1] = system: Shigella sonnei ATCC 11060; conditions: ATCC11060, Muller-Hinton agar, 37°C, 20 hours, read-out: MIC values against the standard strains
Description: (§1) These MIC values were taken by employing a two-fold dilution method: that is, two-fold serial dilutions of each of the test compounds were made and dispersed in a Muller-Hinton agar medium; 2µl of the standard test strain which had the 10⁷ CFU(Colony Forming Unit) per ml was inoculated on the medium; and these were incubated at 37°C for 20 hours.

[2] = system: Pseudomonas aeruginosa ATCC 25619; conditions: ATCC25619, Muller-Hinton agar, 37°C, 20 hours, read-out: MIC values against the standard strains
Description: as §1

[3] = system: Klebsiella pneumoniae ATCC 10031; conditions: ATCC10031, Muller-Hinton agar, 37°C, 20 hours, read-out: MIC values against the standard strains
Description: as §1

[4] = system: Providencia rettgeri ATCC 9250; conditions: ATCC9250, Muller-Hinton agar, 37°C, 20 hours, read-out: MIC values against the standard strains
Description: as §1

[5] = system: Staphylococcus aureus ATCC 6538p; conditions: ATCC6538P, Muller-Hinton agar, 37°C, 20 hours, read-out: MIC values against the standard strains
Description: as §1

[6] = system: Pseudomonas aeruginosa ATCC 10145; conditions: ATCC10145, Muller-Hinton agar, 37°C, 20 hours, read-out: MIC values against the standard strains
Description: as §1

[7] = system: Acinetobacter calcoaceticus ATCC 15473; conditions: ATCC15473, Muller-Hinton agar, 37°C, 20 hours, read-out: MIC values against the standard strains
Description: as §1

[8] = system: Escherichia coli ATCC 25922; conditions: ATCC25922, Muller-Hinton agar, 37°C, 20 hours, read-out: MIC values against the standard strains
Description: as §1

[9] = system: Enterobacter cloacae ATCC 27508; conditions: ATCC27508, Muller-Hinton agar, 37°C, 20 hours, read-out: MIC values against the standard strains
Description: as §1

[10] = system: Bacillus megaterium ATCC 9885; conditions: Priestia megaterium, ATCC9885; Muller-Hinton agar; 37°C; 20 hours; read-out: MIC values against the standard strains
Description: as §1

[11] = system: Staphylococcus aureus ATCC 10537; conditions: ATCC10537, Muller-Hinton agar, 37°C, 20 hours, read-out: MIC values against the standard strains
Description: as §1

[12] = system: Shigella flexneri ATCC 11836; conditions: ATCC11836, Muller-Hinton agar, 37°C, 20 hours, read-out: MIC values against the standard strains
Description: as §1

[13] = system: Escherichia coli ATCC 10536; conditions: ATCC10536, Muller-Hinton agar, 37°C, 20 hours, read-out: MIC values against the standard strains
Description: as §1

[14] = system: Proteus mirabilis ATCC 25933; conditions: ATCC25933, Muller-Hinton agar, 37°C, 20 hours, read-out: MIC values against the standard strains
Description: as §1

[15] = system: Streptococcus faecalis ATCC 29212; conditions: Enterococcus faecalis, ATCC29212; Muller-Hinton agar; 37°C; 20 hours; read-out: MIC values against the standard strains
Description: as §1

[16] = system: Proteus vulgaris ATCC 6059; conditions: ATCC6059, Muller-Hinton agar, 37°C, 20 hours, read-out: MIC values against the standard strains
Description: as §1

[17] = system: Serratia marcescens ATCC 27117; conditions: ATCC27117, Muller-Hinton agar, 37°C, 20 hours, read-out: MIC values against the standard strains
Description: as §1

[18] = system: Morganella morganii ATCC 8076h; conditions: ATCC8076H, Muller-Hinton agar, 37°C, 20 hours, read-out: MIC values against the standard strains
Description: as §1

[19] = system: Bacillus cereus ATCC 11778; conditions: ATCC11778, Muller-Hinton agar, 37°C, 20 hours, read-out: MIC values against the standard strains
Description: as §1

[20] = system: Micrococcus luteus ATCC 9341; conditions: ATCC9341, Muller-Hinton agar, 37°C, 20 hours, read-out: MIC values against the standard strains
Description: as §1

[21] = system: Salmonella typhimurium ATCC 14028; conditions: Salmonella enterica; Muller-Hinton agar; 37°C; 20 hours; read-out: MIC values against the standard strains
Description: as §1

[22] = system: Pseudomonas aeruginosa ATCC 27853; conditions: ATCC27853, Muller-Hinton agar, 37°C, 20 hours, read-out: MIC values against the standard strains
Description: as §1

[23] = system: Enterobacter aerogenes ATCC 29751; conditions: Klebsiella aerogenes, ATCC29751; Muller-Hinton agar; 37°C; 20 hours; read-out: MIC values against the standard strains
Description: as §1

[24] = system: Staphylococcus epidermidis ATCC 12228; conditions: ATCC12228, Muller-Hinton agar, 37°C, 20 hours, read-out: MIC values against the standard strains
Description: as §1

[25] = system: Citrobacter freundii ATCC 8090; conditions: ATCC8090, Muller-Hinton agar, 37°C, 20 hours, read-out: MIC values against the standard strains
Description: as §1

| Compound | MIC [2] [µg/mL] | MIC [3] [µg/mL] | MIC [4] [µg/mL] | MIC [5] [µg/mL] | MIC [6] [µg/mL] | MIC [7] [µg/mL] | MIC [8] [µg/mL] | MIC [9] [µg/mL] | MIC [10] [µg/mL] | MIC [11] [µg/mL] | MIC [12] [µg/mL] | MIC [13] [µg/mL] | MIC [15] [µg/mL] | MIC [17] [µg/mL] | MIC [18] [µg/mL] | MIC [19] [µg/mL] | MIC [20] [µg/mL] | MIC [21] [µg/mL] | MIC [22] [µg/mL] | MIC [23] [µg/mL] | further results |
| --- | --- | --- | --- | --- | --- | --- | --- | --- | --- | --- | --- | --- | --- | --- | --- | --- | --- | --- | --- | --- | --- |
| CN(C)c1cc(N)nc(SCC2=C(C(=O)[O-])N3C(=O)[C@@H](NC(=O)/C(=N\OC(C)(C)C(=O)O)c4csc(N)n4)[C@H]3SC2)[n+]1C [Example 50, 7-[(Z)-2-(2-aminothiazol-4-yl)-2-(carboxyprop-2-oxyimino)acetamido]-3-{4-amino-1-methyl-6-(N,N-dimethyl)aminopyrimidinium-2-yl}thiomethyl-3-cephem-4-carboxylate] | 1 (≈ 1.53 µM) | 0.063 (≈ 0.0967 µM) | ≤ 0.008 | 8 (≈ 12.3 µM) | 2 (≈ 3.07 µM) | 4 (≈ 6.14 µM) | 0.063 (≈ 0.0967 µM) | ≤ 0.008 | 0.25 (≈ 0.384 µM) | 4 (≈ 6.14 µM) | 0.031 (≈ 0.0476 µM) | 0.063 (≈ 0.0967 µM) | > 128 | 0.13 (≈ 0.199 µM) | ≤ 0.008 | 128 (≈ 196 µM) | 0.25 (≈ 0.384 µM) | 0.13 (≈ 0.199 µM) | 1 (≈ 1.53 µM) | 0.5 (≈ 0.767 µM) | MIC [1]: 0.063 µg/mL (≈ 0.0967 µM); MIC [14]: 0.031 µg/mL (≈ 0.0476 µM); MIC [16]: 0.031 µg/mL (≈ 0.0476 µM); MIC [24]: 2 µg/mL (≈ 3.07 µM); MIC [25]: 0.063 µg/mL (≈ 0.0967 µM) |
| CCO/N=C(\C(=O)N[C@@H]1C(=O)N2C(C(=O)[O-])=C(CSc3nc(N)c(C(=O)O)c[n+]3C)CS[C@H]12)c1csc(N)n1 [Example 25, 7-[(Z)-2-(2-aminothiazol-4-yl)-2-(ethoxyimino)acetamido]-3-(4-amino-5-carboxy-1-methylpyrimidinium-2-yl)thiomethyl-3-cephem-4-carboxylate] | 2 (≈ 3.36 µM) | 0.016 (≈ 0.0269 µM) | ≤ 0.008 | 1 (≈ 1.68 µM) | 32 (≈ 53.8 µM) | 32 (≈ 53.8 µM) | 0.031 (≈ 0.0521 µM) | ≤ 0.008 | 0.25 (≈ 0.42 µM) | 0.5 (≈ 0.841 µM) | 0.016 (≈ 0.0269 µM) | 0.031 (≈ 0.0521 µM) | > 128 | 0.5 (≈ 0.841 µM) | ≤ 0.008 | 64 (≈ 108 µM) | 0.063 (≈ 0.106 µM) | 0.13 (≈ 0.219 µM) | 32 (≈ 53.8 µM) | 1 (≈ 1.68 µM) | MIC [1]: 0.063 µg/mL (≈ 0.106 µM); MIC [14]: 0.25 µg/mL (≈ 0.42 µM); MIC [16]: 0.25 µg/mL (≈ 0.42 µM); MIC [24]: 0.5 µg/mL (≈ 0.841 µM); MIC [25]: 0.063 µg/mL (≈ 0.106 µM) |
| CCO/N=C(\C(=O)N[C@@H]1C(=O)N2C(C(=O)[O-])=C(CSc3nc(N)c4cccnc4[n+]3C)CS[C@H]12)c1csc(N)n1 [Example 31, 7-[(Z)-2-(2-aminothiazol-4-yl)-2-(ethoxyimino)acetamido]-3-(6-amino-3-methylpyrido[5,6,e]pyrimidinium-4-yl)thiomethyl-3-cephem-4-carboxylate] | 4 (≈ 6.65 µM) | ≤ 0.008 | 0.016 (≈ 0.0266 µM) | 0.13 (≈ 0.216 µM) | 32 (≈ 53.2 µM) | 16 (≈ 26.6 µM) | 0.13 (≈ 0.216 µM) | 0.016 (≈ 0.0266 µM) | 0.13 (≈ 0.216 µM) | 0.13 (≈ 0.216 µM) | 0.13 (≈ 0.216 µM) | 0.25 (≈ 0.415 µM) | 16 (≈ 26.6 µM) | 1 (≈ 1.66 µM) | 0.016 (≈ 0.0266 µM) | 32 (≈ 53.2 µM) | 0.031 (≈ 0.0515 µM) | 1 (≈ 1.66 µM) | 16 (≈ 26.6 µM) | 0.5 (≈ 0.831 µM) | MIC [1]: 0.25 µg/mL (≈ 0.415 µM); MIC [14]: 1 µg/mL (≈ 1.66 µM); MIC [16]: 1 µg/mL (≈ 1.66 µM); MIC [24]: 0.063 µg/mL (≈ 0.105 µM); MIC [25]: 0.25 µg/mL (≈ 0.415 µM) |
| CC[C@@H](O/N=C(\C(=O)N[C@@H]1C(=O)N2C(C(=O)[O-])=C(CSc3nc(N)cc[n+]3N)CS[C@H]12)c1csc(N)n1)C(=O)O [Example 88-b, 7-[(Z)-2-(2-aminothiazol-4-yl)-2-{(R)-1-carboxyprop-1-oxyimino}acetamido]-3-(1,4-diaminopyrimidinium-2-yl)thiomethyl-3-cephem-4-carboxylate] | 1 (≈ 1.64 µM) | 0.031 (≈ 0.0508 µM) | ≤ 0.008 | 4 (≈ 6.56 µM) | 2 (≈ 3.28 µM) | 8 (≈ 13.1 µM) | 0.031 (≈ 0.0508 µM) | 0.016 (≈ 0.0262 µM) | 1 (≈ 1.64 µM) | 4 (≈ 6.56 µM) | 0.031 (≈ 0.0508 µM) | 0.063 (≈ 0.103 µM) | > 128 | 0.25 (≈ 0.41 µM) | ≤ 0.008 | 128 (≈ 210 µM) | 1 (≈ 1.64 µM) | 0.25 (≈ 0.41 µM) | 2 (≈ 3.28 µM) | 1 (≈ 1.64 µM) | MIC [1]: 0.063 µg/mL (≈ 0.103 µM); MIC [24]: 2 µg/mL (≈ 3.28 µM); MIC [25]: 0.063 µg/mL (≈ 0.103 µM) |
| C[C@@H](O/N=C(\C(=O)N[C@@H]1C(=O)N2C(C(=O)[O-])=C(CSc3nc(N)c(N)c(N)[n+]3C)CS[C@H]12)c1csc(N)n1)C(=O)O [Example 82-b, 7-[(Z)-2-(2-aminothiazol-4-yl)-2-{1-carboxyeth-1-oxyimino}acetamido]-3-(4,5,6-triamino-1-methylpyrimidinium-2-yl)thiomethyl-3-cephem-4-carboxylate] | 1 (≈ 1.6 µM) | 0.031 (≈ 0.0496 µM) | ≤ 0.008 | 8 (≈ 12.8 µM) | 2 (≈ 3.2 µM) | 8 (≈ 12.8 µM) | 0.031 (≈ 0.0496 µM) | ≤ 0.008 | 0.5 (≈ 0.8 µM) | 2 (≈ 3.2 µM) | 0.031 (≈ 0.0496 µM) | 0.031 (≈ 0.0496 µM) | > 128 | 0.063 (≈ 0.101 µM) | ≤ 0.008 | 128 (≈ 205 µM) | 0.5 (≈ 0.8 µM) | 0.063 (≈ 0.101 µM) | 1 (≈ 1.6 µM) | 0.5 (≈ 0.8 µM) | MIC [14]: 0.031 µg/mL (≈ 0.0496 µM); MIC [16]: 0.031 µg/mL (≈ 0.0496 µM); MIC [24]: 2 µg/mL (≈ 3.2 µM); MIC [25]: 0.063 µg/mL (≈ 0.101 µM) |
